Source: the METLIN SMRT retention time set (Domingo-Almenara et al. 2019)

Assay: gradient 5% acetonitrile 3 min, to 50% in 2 min, to 85% in 15 min, held 3 min, 100 µL/min
Conditions: column: Zorbax Extend-C18 2.1 x 50 mm; eluents: water / acetonitrile, 0.1% formic acid
Procedure, shortened: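 Retention times of pure standards were taken from adduct peaks that were selected by computer and manually inspected. Over 3 months, mixtures of ~100 molecules were run by HPLC–quadrupole time-of-flight mass spectrometry in positive and negative ionization mode. The Zorbax Extend-C18 column (2.1 × 50 mm, 1.8 μm) ran at 100 μL/min in water and acetonitrile, each containing 0.1% formic acid, with 40 μL dead volume and 900 μL dwell volume.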

Row | SMILES | RP-LC retention time
1 | C=CCn1c(=O)c2ccccc2n(Cc2nc(-c3cc(OC)c(OC)c(OC)c3)no2)c1=O | 948 s
2 | COc1ccc(OC)c(NC(=O)Cn2c(C)cc(-c3nnc(C)o3)c2C)c1 | 776 s
3 | CCOc1cc(CNc2ccc3[nH]c(=O)[nH]c3c2)cc(Br)c1OCC | 717 s
4 | COC(=O)c1cc(OCC(=O)Nc2cccc(OC)c2)c2cc(OC)ccc2n1 | 811 s
5 | Cc1cccc(CC(=O)NCCSc2ncc(-c3ccccc3)[nH]2)c1 | 607 s
6 | CC(NC(=O)CSc1nnc2c3ccccc3nc(-c3ccco3)n12)c1nc2ccccc2[nH]1 (stereo unspecified) | 638 s
7 | Cc1cc(-c2nnc(-c3ccccc3)o2)c(C)n1CC(=O)Nc1ccc(F)cc1 | 938 s
8 | O=C(Nc1ccc(-c2nc(-c3ccc(F)cc3)no2)cc1)c1ccc(Br)o1 | 1200 s
9 | COc1ccc(NC(=O)c2c(O)c3cccnc3n(-c3cccc(F)c3)c2=O)cc1 | 1190 s
10 | Brc1cccc(-c2nnc3sc(-c4ccncc4)nn23)c1 | 838 s
11 | O=C(NCc1nc(-c2ccc(Oc3ccc(Cl)cc3)cc2)no1)c1ccco1 | 987 s
12 | O=C(Nc1ccc(F)cc1F)c1c(O)c2cccnc2n(-c2ccccc2)c1=O | 1250 s
13 | CCCOc1nc2ccccc2nc1N1CCCC(C(=O)N2CCN(c3ccccc3F)CC2)C1 (stereo unspecified) | 1380 s
14 | COc1ccc2c(c1)C1(CCN(C(=O)c3ccc(Cl)cc3)C1)C(=O)N2C (stereo unspecified) | 832 s
15 | O=S(=O)(NCc1nc(-c2ccc(NS(=O)(=O)c3ccccc3)cc2)no1)c1ccccc1 | 877 s
16 | O=C1N(c2cccc(F)c2)c2ncccc2S(=O)(=O)N1Cc1ccccc1F | 1020 s
17 | O=C(NCc1ccc(Br)cc1)c1cn2c(n1)CCCC2 | 633 s
18 | Cc1cc(S(=O)(=O)Nc2ccc(Cn3cncn3)cc2)ccc1F | 743 s
19 | Cc1nc(-c2ccc(NC(=O)c3ccc([N+](=O)[O-])cc3)cc2)cs1 | 855 s
20 | COc1cccc(C(O)CN2CCN(c3cccc(OC)c3)CC2)c1 (stereo unspecified) | 659 s
21 | COc1ccc(OCc2noc(CNC(=O)c3cc(-c4ccco4)on3)n2)cc1 | 832 s
22 | Cc1cc(C(=O)Nc2cccc(F)c2)nc2ccnn12 | 889 s
23 | O=C(C1=NN(Cc2cc(F)cc(F)c2)c2ccccc2S1(=O)=O)N1CCCCC1 | 956 s
24 | Cc1noc(C)c1-c1ccc(S(=O)(=O)Nc2ccc(C(F)(F)F)cc2)cc1 | 1020 s
25 | Cc1cc2c(cc1C(=O)NCc1cccs1)OCCCO2 | 804 s
26 | O=C1CC(NC(=O)c2cnn(-c3ccccc3)n2)CN1 (stereo unspecified) | 603 s
27 | CCOCCCNC(=O)CCc1c(-c2ccc(F)cc2)nc2ccccn12 | 588 s
28 | c1ccc2c(c1)CCN(c1nccnc1OC1CCNC1)C2 (stereo unspecified) | 649 s

Other lines, results leading:

Row | RP-LC retention time | SMILES
29 | 589 s | Cc1ccnc(NS(=O)(=O)c2ccc(NC(=O)c3cn(C)nc3C)cc2)n1
30 | 818 s | Cc1onc(-c2ccccc2)c1C(=O)NC1C(=O)N2C1SC(C)(C)C2C(=O)O (stereo unspecified)
31 | 930 s | CCCOc1cn(-c2ccc(F)cc2)nc1C(=O)N1CCC(C(=O)OCC)CC1
32 | 618 s | CCCN1CCN(C(=O)c2c(C)sc3ccn(CC(C)C)c(=O)c23)CC1
33 | 1120 s | COc1ccc(F)cc1S(=O)(=O)N1CCC(F)(c2nc(CC(C)C)no2)CC1
34 | 619 s | O=C(NCCCN1CCCC1)c1cc2n(n1)CCCN(Cc1ccc(F)cc1)C2=O
35 | 666 s | O=C(Nc1ccc2c(c1)OCCO2)C1CCN(c2cnc3nccnc3c2)CC1
36 | 730 s | COCCCNC(=O)C1CCN(S(C)(=O)=O)c2cc(Cl)ccc2O1 (stereo unspecified)
37 | 572 s | COc1ccc(-c2ccc(N3CCN(c4ccccn4)CC3)nn2)cc1S(=O)(=O)N1CCOCC1
38 | 637 s | Cc1cc(C)n(-c2ccc(C(=O)NCCCN3CCCC3=O)nn2)n1
39 | 652 s | CCOC(=O)C1CCCN(Cc2nc3nc(C)cc(N4CCC(C)CC4)n3n2)C1 (stereo unspecified)
40 | 950 s | CCc1ccccc1S(=O)(=O)N1CCC(C(=O)NCc2csc(-c3cccs3)n2)CC1
41 | 755 s | O=C(c1ccccc1[N+](=O)[O-])N1c2nc(-c3ccccc3)nn2C2(CCCCC2)[C@@H]2CCCC[C@@H]21
42 | 790 s | COc1cc(CNC(=O)c2ccc3c(c2)N(C)C(=O)C2CCCCN32)cc(OC)c1OC (stereo unspecified)
43 | 678 s | Cc1ccc(S(=O)(=O)NC2CCS(=O)(=O)C2)cc1[N+](=O)[O-] (stereo unspecified)
44 | 654 s | CCN1C(=O)C(CC(=O)N2CCCC2)Sc2ncccc21 (stereo unspecified)
45 | 781 s | CCSc1ccccc1C(=O)Nc1cc(C(C)(C)C)nn1CCO
46 | 799 s | Cc1oc(-c2[nH]ncc2C(=O)N2CCCCC2)cc1S(=O)(=O)Nc1ccc(Cl)cc1
47 | 716 s | O=C1CCCc2cc(S(=O)(=O)N3CCC(C(=O)N4CCCCCC4)CC3)ccc2N1

Row | RP-LC retention time | SMILES
48 | 1100 s | Cc1ccc(-c2csc(NC(=O)C3CCC3)n2)cc1C
49 | 1100 s | Cc1ccc(S(=O)(=O)N2CCCN(C)c3ccccc32)cc1F
50 | 584 s | Cc1nn2c(CNC(=O)C3CCN(C(=O)c4ccccc4)CC3)c(C)nc2s1
51 | 587 s | CC(=O)N1CCC2(CC1)OC(=O)C(C)=C2C(=O)NCCCN1CC(C)CC(C)C1 (stereo unspecified)
52 | 1010 s | CCCn1c(=O)sc2cc(S(=O)(=O)N3CCC(C(=O)Nc4ccc(C)cc4)CC3)ccc21
53 | 780 s | Cc1ccc(SCC(=O)Nc2nnc(Cc3ccc4c(c3)OCO4)o2)cc1
54 | 779 s | CC(C)NC(=O)C1CCc2sc(C(=O)N3CCCCC3)cc2C1 (stereo unspecified)
55 | 637 s | COC1CCC12CCN(Cc1cccc(F)c1)CC2 (stereo unspecified)
56 | 742 s | CCCNC(=O)C1CCCN(c2nc3ncn(CC(=O)Nc4ccccc4OCC)c(=O)c3s2)C1 (stereo unspecified)
57 | 738 s | CC1(C)C2CCC(CN=C(N)CSS(=O)(=O)O)C1C2 (stereo unspecified)
58 | 775 s | CCN(CC)C(=O)c1cc2c(s1)CCC(C(=O)Nc1ccc3c(c1)OCCO3)C2 (stereo unspecified)
59 | 734 s | Cc1ccc(NC(=O)CN2C(=O)CN(C)C(=O)c3ccccc32)c(Br)c1
60 | 1060 s | Cc1nc(-c2csc(S(=O)(=O)N3CCCC(C(=O)Nc4c(C)cccc4C)C3)c2)no1 (stereo unspecified)
61 | 861 s | CCSCCOC(=O)C1=C(C)NC2=C(C(=O)CCC2)C1c1cccc(OC)c1OC (stereo unspecified)
62 | 660 s | Cc1ccc(-c2nnc(N3CCC(C(=O)NCCCN4CCCC4=O)CC3)o2)cc1
63 | 975 s | CCOC(=O)c1ccc(NC(=O)C2CCCN(S(=O)(=O)c3cc(OC)ccc3OC)C2)cc1 (stereo unspecified)
64 | 1000 s | O=c1n(CCOc2ccccc2)nc2c(S(=O)(=O)N3CCN(c4ccc(F)cc4)CC3)cccn12
65 | 686 s | CCOCCCNC(=O)c1ccc2c(c1)NC(=O)C1CCCCN21 (stereo unspecified)
66 | 1150 s | CCc1ccc(Oc2cc(N3CCC(C(=O)NCCC4=CCCCC4)CC3)ncn2)cc1
